Where two headings read alike, the source gives them in different places.
Columns and labels:
Human cRaf1 = biological target: T1, Human cRaf1 (Homo sapiens, UniProt P04049); experiment: Raf kinase assay (cRaf1 assay / Raf/MEK cascade assay); assay type: biochemical
T1 construct: poly-histidine (C); made in house

[1] = system: MIA PACA (human pancreatic carcinoma cell line); experiment: Cell Based Efficacy (MTT Assay), MIA PACA; conditions: MIA PaCa-2, 72 hours with compound, 50% inhibitory concentration
Method: (§1) The potency of compounds of the invention are tested for their ability to inhibit cell proliferation and cell viability. The metabolic conversion of 3-(4,5-dimethylthiazol-2-yl)-2,5-diphenyltetrazolium bromide (MTT, Sigma #M2128) to a reduced form is a commonly used measure of cellular viability. Following is the procedure:
(§2) Cells are maintained in 75 cm^2 tissue culture flasks until ready for use. The cells are grown and plated for the assay in Dulbecco's modified Eagle's media containing 10% fetal bovine serum. For example, the following cell lines can be used: a) human foreskin fibroblasts (HFF), b) HT29 (human colon carcinoma cell line), c) MDA-MB-468 (human breast carcinoma cell line), d) RKO (human colon adenocarcinoma cell line), e) SW620 (human colon carcinoma cell line), f) A549 (human lung carcinoma cell line), and g) MIA PACA (human pancreatic carcinoma cell line). Cells are maintained at 37° C. in 10% CO2, 90% humidified air. Cells are plated in 96-well tissue culture plates at the densities listed below. 100 μL of cell suspension is added to each well of the 96-well plate except the top row of the plate which contains no cells and serves as a reference for the spectrophotometer.
MIA PACA 3000 cells/well
(§3) Cells are incubated overnight in Dulbecco's modified Eagle's media containing 10% fetal bovine serum at 37° C. in 10% CO2, 90% humidified air prior to dosing. Cells are dosed in 10 sequential 3-fold dilutions starting at 30 uM depending upon the solubility of the compound. Compounds with solubilities of less than 30 uM are dosed at the highest soluble concentration. Stock solutions of compounds are made in 100% dimethyl sulfoxide (DMSO). Stock solutions are diluted in Dulbecco's modified Eagle's media containing 100 ug/mL gentamicin and 0.3 to 0.6% DMSO at the twice the highest concentration to be placed on the cells. If compounds have been dissolved in DMSO the final concentration of DMSO on the cells is kept below 0.3%. 3-fold serial dilutions are performed on each compound to prepare 10 concentrations of the compound for dosing. 100 μL of diluted compound is added to the 100 μL of media currently on the dish. For each concentration of compound, 2-4 replicate wells are prepared.
(§4) Cells are returned to incubator and allowed to proliferate in the presence of compound for 72 hours before addition of MTT. MTT is prepared in phosphate buffered saline (Irvine Scientific #9240) at a concentration of 2mg/mL. 50 μL per well of MTT solution is added to the 200 μL of media to yield a final concentration of 0.4 mg/mL and plates are returned to the incubator for 4 hours. After 4 hours incubation the media, compound and MTT mixture is aspirated from the plates and 100 μL of 100% DMSO is added to each well in addition to 25 μL of Sorenson's Buffer (0.1M glycine, 0.1M NaCl, pH 10.5). Quantitation of metabolic reduction of MTT in each plate is performed by reading optical density at 570 nm wavelength on a Molecular Devices UVmax microplate reader. Growth inhibition curves and 50% inhibitory concentrations are determined using Microsoft Excel.
(§5) Table 4 illustrates the inhibitory activity of compounds of the present invention against a representative kinase (raf) and the cytotoxicity of compounds of the present invention against a broad range of human tumor cell lines.

[2] = system: MDA-MB-468 (human breast carcinoma cell line); experiment: Cell Based Efficacy (MTT Assay), MDA-MB-468; conditions: 72 hours with compound, 50% inhibitory concentration
Method: as §1
as §2, with “spectrophotometer. […]” for “spectrophotometer.”
as §3, §4, §5

[3] = system: HT29 (human colon carcinoma cell line); experiment: Cell Based Efficacy (MTT Assay), HT29; conditions: HT-29, 72 hours with compound, 50% inhibitory concentration
Method: as §1, §2, §3, §4, §5

[4] = system: SW620 (human colon carcinoma cell line); experiment: Cell Based Efficacy (MTT Assay), SW620; conditions: SW-620, 72 hours with compound, 50% inhibitory concentration
Method: as §1
as §2, with “spectrophotometer. […]” for “spectrophotometer.”
as §3, §4, §5

HT-29 xenograft = experiment: Anti-tumor study in mice, HT-29 xenograft; assay type: in vivo
Method: (§6) Mice are acquired from Taconic Farms and are maintained in Microisolator cages at 72±2° F. with a 12 hour light/dark cycle. Animals are housed at 4 mice per cage (28×17×12 cm ) and are given food and water ad libitum. Animals are numbered through the use of an ear punch or tail tattoo. All animal handling is done in a laminar flow hood.
(§7) Solid tumors are measured by caliper measurement through the skin. Caliper measurements are typically made twice weekly. Tumor weight is calculated using the equation (length×width^2 /2)=mg tumor weight.
(§8) Compounds are prepared in a vehicle consisting of DMSO, Cremophore and PBS.
Drug therapy begins when the average tumor size is approximately 40-50 mg, which usually is day 7 after implant. The dose schedule consists of one dose/day for 5 consecutive days. Drugs are administered at 3 or 4 dose-levels based upon the previously-determined maximally tolerated dose. A vehicle control group is also included. Drugs may be administered by either i.v., i.p., s.c., or oral (p.o.) transdermal routes or other alternative routes. Drugs may be administered via tail vein infusion. The injection volume administered for each mouse is usually 0.01-0.02 mL/g of body weight. In the case of i.v. injections and tail vein infusion animals are restrained in a Broome restrainer during handling. Animal are fasted overnight prior to p.o. dosing. […]

PC-3 (prostate) = experiment: Cell Based Efficacy (MTT Assay), PC-3; conditions: Homo sapiens; 72 hours with compound; 50% inhibitory concentration
Method: as §1, §2, §3, §4, §5

SW620 xenograft = experiment: Anti-tumor study in mice, SW620 xenograft; assay type: in vivo; conditions: 50 mg/kg
Method: as §6
SW620, available from the American Type Culture Collection, are grown in media consisting of RPMI 1640 with fetal bovine serum (10%), sodium pyruvate (1.0 mM) and glutamine (2.0 mM). Cells are incubated at 37° C. in 5% CO2. Cells are harvested with trypsin (0.05%), centrifuged, and resuspended in PBS:matrigel (1:1) at 1×10^7 cell/ml.
One of the tumor cell lines used is the colon line SW620. Tumors are initiated by subcutaneous injection of a cell suspension into the right flank of each mouse. The inoculum consists of 2×10^6 cells/mouse/ 0.2 ml in PBS:matrigel (1:1).
as §7, §8
Drug therapy begins when the average tumor size is approximately 40-50 mg, which usually is day 7 after implant. […] Drugs are administered at 3 or 4 dose-levels based upon the previously-determined maximally tolerated dose. […]

[5] = Table 3, read-out: Raf Kinase activity

T1 sequence (P04049 whole entry): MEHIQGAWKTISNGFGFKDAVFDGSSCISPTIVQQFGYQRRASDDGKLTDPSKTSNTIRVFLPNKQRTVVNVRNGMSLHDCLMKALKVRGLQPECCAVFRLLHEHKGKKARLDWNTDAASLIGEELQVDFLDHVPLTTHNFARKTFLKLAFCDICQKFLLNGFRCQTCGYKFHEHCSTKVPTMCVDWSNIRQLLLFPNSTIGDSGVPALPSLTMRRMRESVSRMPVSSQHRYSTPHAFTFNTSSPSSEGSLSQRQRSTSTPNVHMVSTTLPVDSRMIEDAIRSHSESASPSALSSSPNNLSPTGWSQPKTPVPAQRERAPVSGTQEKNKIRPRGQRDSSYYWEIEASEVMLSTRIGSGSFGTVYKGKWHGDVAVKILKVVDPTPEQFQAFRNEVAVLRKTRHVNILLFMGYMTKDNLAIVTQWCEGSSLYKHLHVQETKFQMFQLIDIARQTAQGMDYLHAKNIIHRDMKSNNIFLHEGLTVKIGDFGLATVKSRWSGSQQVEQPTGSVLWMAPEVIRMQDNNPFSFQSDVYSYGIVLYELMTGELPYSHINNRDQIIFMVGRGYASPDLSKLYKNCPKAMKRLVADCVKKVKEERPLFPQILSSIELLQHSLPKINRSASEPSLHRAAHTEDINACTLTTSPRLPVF

SMILES | IC50 (Human cRaf1; [5]) | IC50 (Human cRaf1; Table 4, read-out: Raf) | IC50 [1] | IC50 [2] | IC50 [3] | IC50 [4] | Tumor Response % Inhibition @ mg/kg (HT-29 xenograft; 5 mg/kg) | IC50 (PC-3 (prostate)) | Tumor Response % Inhibition @ mg/kg (HT-29 xenograft; 25 mg/kg) | Tumor Response % Inhibition @ mg/kg (SW620 xenograft)
Cc1nc(-c2ccc3c(c2)C(=Cc2cc(Br)c(O)c(Br)c2)C(=O)N3)cs1 [Example 2, 3-(3,5-Dibromo-4-hydroxy-benzylidene)-5-(2-methyl-thiazol-4-yl)-1,3-dihydro-indol-2-one] | < 1 µM | < 0.5 µM | 0.5 to 5 µM | 0.5 to 5 µM | 0.5 to 5 µM | 0.5 to 5 µM | 50% | 5 to 50 µM |  | 
O=C1Nc2ccc(C(=O)CCl)cc2C1=Cc1cc(Br)c(O)c(Br)c1 [Example 84, 5-(2-Chloro-acetyl)-3-(3,5-dibromo-4-hydroxy-benzylidene)-1,3-dihydro-indol-2-one] | < 1 µM |  |  |  |  |  |  |  | 50% | 
CCN(CC)CC(=O)c1ccc2c(c1)C(=Cc1cc(Cl)c(O)c(Cl)c1)C(=O)N2 [Example 85, 3-(3,5-Dichloro-4-hydroxy-benzylidene)-5-(2-diethylamino-acetyl)-1,3-dihydro-indol-2-one] | < 1 µM |  |  |  |  |  |  |  |  | 40%
Cc1nc(-c2ccc3c(c2)C(=Cc2cc([N+](=O)[O-])c(O)c([N+](=O)[O-])c2)C(=O)N3)cs1 [Example 130, 3-(3,5-Dinitro-4-hydroxy-benzylidene)-5-(2-methyl-thiazol-4-yl)-1,3-dihydro-indol-2-one] | < 1 µM | < 0.5 µM | 5 to 50 µM | 5 to 50 µM | > 50 µM | 5 to 50 µM |  | > 50 µM |  | 
O=C1Nc2cc(Br)ccc2C1=Cc1cc(Cl)c(O)c(Cl)c1 [Example 133, 6-Bromo-3-(3,5-dichloro-4-hydroxy-benzylidene)-1,3-dihydro-indol-2-one] | < 1 µM | < 0.5 µM | 5 to 50 µM | 0.5 to 5 µM | 0.5 to 5 µM | 5 to 50 µM |  | 5 to 50 µM |  | 
